According to the CheMixHub viscosity set:

Test: xn = mol fraction of the nth substance listed

Cn1cc[n+](CCCC#N)c1.O=S(=O)([O-])C(F)(F)F + CC#N
Conditions | viscosity [mPa·s]
298.15 K, 101 kPa, x1 = 0.7996 | 306.5

CNC(C)=O + CC(=O)c1ccccc1
308.15 K, 101 kPa
Conditions | viscosity [mPa·s]
x2 = 0.0686 | 3.109
x2 = 0.138 | 2.919
x2 = 0.2189 | 2.657
x2 = 0.3143 | 2.397
x2 = 0.3938 | 2.199
x2 = 0.4912 | 1.965
x2 = 0.6042 | 1.747
x2 = 0.7227 | 1.561
x2 = 0.8517 | 1.455

CNC(C)=O + CC(C)(C)O
303.15 K, 101 kPa
Conditions | viscosity [mPa·s]
x1 = 0.0809 | 4.253
x1 = 0.1017 | 4.365
x1 = 0.2071 | 4.448
x1 = 0.3102 | 4.22
x1 = 0.4103 | 4.026
x1 = 0.5002 | 3.864
x1 = 0.6021 | 3.776
x1 = 0.7095 | 3.752
x1 = 0.8039 | 3.747
x1 = 0.9007 | 3.778

CC(C)CCO + CC(C)CC(C)(C)C
298.15 K, 101 kPa
Conditions | viscosity [mPa·s]
x2 = 0.0685 | 3.063
x2 = 0.1336 | 2.496
x2 = 0.1409 | 2.428
x2 = 0.2215 | 1.908
x2 = 0.2866 | 1.576
x2 = 0.311 | 1.471
x2 = 0.352 | 1.326
x2 = 0.4007 | 1.178
x2 = 0.4038 | 1.175
x2 = 0.4505 | 1.051
x2 = 0.4937 | 0.967
x2 = 0.5321 | 0.896
x2 = 0.6132 | 0.772
x2 = 0.6488 | 0.723
x2 = 0.7255 | 0.642
x2 = 0.782 | 0.595
x2 = 0.818 | 0.564
x2 = 0.857 | 0.544
x2 = 0.9105 | 0.512
x2 = 0.9545 | 0.494

CCOCCO + CC(C)CC(C)(C)C
viscosity [mPa·s], 101.33 kPa
Conditions | x1 = 0.0991 | x1 = 0.1991 | x1 = 0.2975 | x1 = 0.4347 | x1 = 0.4972 | x1 = 0.6001 | x1 = 0.6976 | x1 = 0.7979 | x1 = 0.8986
298.15 K | 0.494 | 0.536 | 0.595 | 0.692 | 0.753 | 0.862 | 1.006 | 1.179 | 1.436
303.15 K | 0.466 | 0.5 | 0.552 | 0.648 | 0.694 | 0.797 | 0.913 | 1.086 | 1.292
308.15 K | 0.439 | 0.475 | 0.517 | 0.601 | 0.642 | 0.738 | 0.839 | 0.993 | 1.167
313.15 K | 0.415 | 0.445 | 0.483 | 0.56 | 0.597 | 0.677 | 0.767 | 0.901 | 1.066

CC(C)CCO + CC(C)CO
viscosity [mPa·s], 101 kPa
Conditions | x1 = 0.2 | x1 = 0.4 | x1 = 0.6 | x1 = 0.8
293.15 K | 4.048 | 4.099 | 4.163 | 4.241
313.15 K | 2.178 | 2.22 | 2.27 | 2.326

CC(C)CCO + CC(C)O
298.15 K, 101 kPa
Conditions | viscosity [mPa·s]
x1 = 0.0665 | 2.158
x1 = 0.095 | 2.195
x1 = 0.1475 | 2.277
x1 = 0.1504 | 2.279
x1 = 0.2352 | 2.411
x1 = 0.2364 | 2.41
x1 = 0.3228 | 2.562
x1 = 0.3304 | 2.572
x1 = 0.4092 | 2.707
x1 = 0.4193 | 2.736
x1 = 0.5069 | 2.896
x1 = 0.5352 | 2.948
x1 = 0.6126 | 3.093
x1 = 0.6388 | 3.125
x1 = 0.7326 | 3.271
x1 = 0.7853 | 3.365
x1 = 0.8525 | 3.477
x1 = 0.9466 | 3.651

CCOCCO + CC(C)O
viscosity [mPa·s], 101.33 kPa
Conditions | x1 = 0.1024 | x1 = 0.2002 | x1 = 0.301 | x1 = 0.4035 | x1 = 0.5037 | x1 = 0.6022 | x1 = 0.6984 | x1 = 0.8009 | x1 = 0.9017
298.15 K | 1.858 | 1.764 | 1.703 | 1.692 | 1.682 | 1.693 | 1.711 | 1.756 | 1.773
303.15 K | 1.614 | 1.54 | 1.495 | 1.49 | 1.491 | 1.504 | 1.518 | 1.566 | 1.575
308.15 K | 1.404 | 1.356 | 1.324 | 1.325 | 1.329 | 1.34 | 1.36 | 1.398 | 1.413
313.15 K | 1.233 | 1.19 | 1.17 | 1.176 | 1.19 | 1.203 | 1.217 | 1.259 | 1.267

CNC(C)=O + CC(C)O
303.15 K, 101 kPa
Conditions | viscosity [mPa·s]
x1 = 0.11 | 1.922
x1 = 0.2078 | 2.005
x1 = 0.3061 | 2.099
x1 = 0.3988 | 2.217
x1 = 0.4962 | 2.377
x1 = 0.5547 | 2.49
x1 = 0.6962 | 2.824
x1 = 0.8005 | 3.115
x1 = 0.8927 | 3.418

CCOCCO + CCC(C)=O
298.15 K, 101 kPa
Conditions | viscosity [mPa·s]
x2 = 0.1219 | 1.479
x2 = 0.2381 | 1.178
x2 = 0.3488 | 0.948
x2 = 0.4545 | 0.767
x2 = 0.5555 | 0.609
x2 = 0.6521 | 0.524
x2 = 0.7446 | 0.457
x2 = 0.8333 | 0.419
x2 = 0.9183 | 0.387

Cc1ccc(NC(=O)NCCCCCCCCCCCCCCC(C)C)cc1NC(=O)NCCCCCCCCCCCCCCC(C)C + CCCCC
Conditions | viscosity [mPa·s]
293.15 K, 100 kPa, x1 = 0.0001 | 2

CC(CC(C)(C)C)CP(=O)(O)CC(C)CC(C)(C)C (centres undefined) + CCCCCC
298.15 K, 101 kPa
Conditions | viscosity [mPa·s]
x1 = 0.0033 | 0.305
x1 = 0.0159 | 0.36
x1 = 0.0175 | 0.368
x2 = 0.0987 | 89.32
x2 = 0.1765 | 69.68
x2 = 0.2746 | 47.91
x2 = 0.4476 | 23.62
x2 = 0.642 | 9.432
x2 = 0.7262 | 5.982
x2 = 0.73 | 5.931
x2 = 0.796 | 3.39
x2 = 0.8384 | 2.461
x2 = 0.8555 | 2.122
x2 = 0.9097 | 1.221
x2 = 0.9111 | 1.203
x2 = 0.9623 | 0.504

CCCCCCCCCCOC(C)=O + CCCCCC
303.15 K, 101.3 kPa
Conditions | viscosity [mPa·s]
x1 = 0.2001 | 0.4713
x1 = 0.4057 | 0.7528
x1 = 0.5086 | 0.9289
x1 = 0.5995 | 1.116
x1 = 0.7551 | 1.473

CCOCCO + CCCCCC
viscosity [mPa·s], 101.33 kPa
Conditions | x1 = 0.0967 | x1 = 0.1963 | x1 = 0.2958 | x1 = 0.394 | x1 = 0.4948 | x1 = 0.5958 | x1 = 0.6979 | x1 = 0.7955 | x1 = 0.8993
298.15 K | 0.335 | 0.376 | 0.433 | 0.504 | 0.595 | 0.716 | 0.875 | 1.087 | 1.452
303.15 K | 0.318 | 0.357 | 0.406 | 0.472 | 0.554 | 0.663 | 0.803 | 0.987 | 1.315
308.15 K | 0.303 | 0.339 | 0.385 | 0.443 | 0.517 | 0.615 | 0.741 | 0.907 | 1.199
313.15 K | 0.29 | 0.322 | 0.361 | 0.415 | 0.484 | 0.573 | 0.686 | 0.829 | 1.083
